# Structures can show the parent of a compound that is named as a salt.
# Experiment: in vitro
# Details: rat, gh3-tre-luc cells, AC50 (uM) modified / 1000
row,Compound,CC50 at 24 h
1,CC(C)(C)NC[C@H](O)c1ccc(O)cc1Cl [Meluadrine],> 50 µM
2,CC(C)=CCC/C(C)=C/CC/C(C)=C/CC/C(C)=C/CC1=C(C)C(=O)c2ccccc2C1=O [Menatetrenone],> 50 µM
3,CCCCCCC#CC(=O)OC [Methyl 2-nonynoate],> 90 µM
4,CO[C@@H]1[C@@H](O[C@@H]2O[C@H](C)[C@@H](O[C@H]3C[C@@](C)(O)[C@@H](O)[C@H](C)O3)[C@H](N(C)C)[C@H]2O)[C@@H](CC=O)C[C@@H](C)[C@@H](O[C@H]2CC[C@H](N(C)C)[C@@H](C)O2)/C=C/C=C/C[C@@H](C)OC(=O)C[C@H]1OC(C)=O [Spiramycin II],32.1 µM
5,"CC1(C)C(=O)N(Cl)C(=O)N1Cl [1,3-Dichloro-5,5-dimethylhydantoin]",> 90 µM
6,"COc1c(Br)cc(Br)c(C)c1Br [1,3,5-Tribromo-2-methoxy-4-methylbenzene]",> 90 µM
7,"CCCC1CCC(=O)O1 (stereo not shown) [1,4-Heptanolide]",> 90 µM
8,CC/C=C\CCOC(C)=O [(3Z)-3-Hexenyl acetate],> 90 µM
9,O=C(/C=C/c1ccccc1)OCCc1ccccc1 [2-Phenylethyl 3-phenylprop-2-enoate],> 90 µM
10,CC(C)(C)NCC(O)CSc1nc(-c2ccc(C(N)=O)s2)cs1 (stereo not shown) [Arotinolol hydrochloride],> 50 µM
11,CN(C)C/C=C(/c1ccc(Br)cc1)c1cccnc1 [Zimeldine dihydrochloride hydrate],35.2 µM
12,CN(C)CCC=C1c2ccccc2C=Cc2ccccc21 [Cyclobenzaprine hydrochloride],14.5 µM
13,CC1=CC[C@@H](C(C)(C)O)CC1 [alpha-Terpineol],> 90 µM
14,CS(=O)(=O)NC(=O)c1cc(Oc2ccc(C(F)(F)F)cc2Cl)ccc1[N+](=O)[O-] [Fomesafen],> 90 µM
15,C=CCn1c(=O)n([C@@H]2O[C@H](CO)[C@@H](O)[C@H]2O)c2nc(N)[nH]c(=O)c21 [Loxoribine],> 50 µM
16,"CCc1nccnc1CC [2,3-Diethylpyrazine]",> 30 µM
17,CNC(=O)c1ccccc1 [N-Methylbenzamide],> 90 µM
18,COC(=O)CC(C)CCC=C(C)C (stereo not shown) [Methyl citronellate],> 90 µM
19,CCCC(=O)Nc1c(I)cc(I)c(CC(CC)C(=O)O)c1I (stereo not shown) [Sodium tyropanoate],26.5 µM
20,"Oc1ccc(C2(c3ccc(O)cc3)c3ccccc3-c3ccccc32)cc1 [4,4'-(9H-Fluorene-9,9-diyl)diphenol]",28.7 µM
21,"BrCCCCCBr [Pentane,1,5-dibromo-]",> 100 µM

row,Compound,CC50 at 24 h
1,O=Cc1ccccc1Cl [2-Chlorobenzaldehyde],> 90 µM
2,COCC(C)OCC(C)O (stereo not shown) [Dipropylene glycol monomethyl ether],> 90 µM
3,"CCn1cc[n+](C)c1C [1-Ethyl-2,3-dimethylimidazolium bromide]",> 90 µM
4,O=C(O)COc1ccccc1/C=N/NC(=O)c1ccncc1 [Aconiazide],> 50 µM
5,CCOCCOCC [Ethylene glycol diethyl ether],> 100 µM
6,CC(C)(O)c1cnn2c(-c3ccc(F)c(-c4c(F)cccc4C#N)c3)cnc2n1 [PharmaGSID_47330],> 90 µM
7,"CCCC(=O)OC(C)(C)Cc1ccccc1 [1,1-Dimethyl-2-phenylethyl butanoate]",> 90 µM
8,CC(C(=O)O)c1ccc2c(c1)Cc1cccnc1O2 (stereo not shown) [Pranoprofen],> 50 µM
9,CCCc1cc(=O)[nH]c(=S)[nH]1 [6-Propyl-2-thiouracil],> 90 µM
10,"CCCC(=O)c1cc(O)c(O)cc1O [2',4',5'-Trihydroxybutyrophenone]",> 90 µM
11,COc1cc(C(=S)N2CCOCC2)ccc1O [Vanitiolide],> 50 µM
12,Clc1ccccc1 [Chlorobenzene],> 90 µM
13,"NCCCN(CCO)CCO [2,2'-[(3-Aminopropyl)imino]diethanol]",> 90 µM
14,O=C(O)CC(Cl)C(=O)O (stereo not shown) [Chlorobutanedioic acid],> 90 µM
15,O=C(CCCN1CCC(n2c(=S)[nH]c3ccccc32)CC1)c1ccc(F)cc1 [Timiperone],23.9 µM
16,CCCCOCCOC(C)=O [2-Butoxyethyl acetate],> 90 µM
17,O=C(CCCCCCCCc1cccnc1)N1CCC(C=C(c2ccccc2)c2ccccc2)CC1 [Ro 23-7637],26.1 µM
18,CCOC(=O)COC(=O)c1cc(Oc2ccc(C(F)(F)F)cc2Cl)ccc1[N+](=O)[O-] [Fluoroglycofen-ethyl],> 90 µM
19,CO[C@H]1C[C@H](O[C@H]2[C@H](C)[C@@H](O[C@@H]3O[C@H](C)C[C@H](N(C)C)[C@H]3OC(C)=O)[C@@H](C)C[C@@]3(CO3)C(=O)[C@H](C)[C@@H](OC(C)=O)[C@@H](C)[C@@H](C)OC(=O)[C@@H]2C)O[C@@H](C)[C@@H]1OC(C)=O [Troleandomycin],> 20 µM
20,Oc1noc2c1CCNC2 [Gaboxadol],> 50 µM
21,COc1ccc(/C=N/NC(=O)c2ccncc2)cc1OC [Verazide],> 50 µM

row,Compound,CC50 at 24 h
1,O=[N+]([O-])c1c(Cl)cccc1-c1c[nH]cc1Cl [Pyrrolnitrin],23.7 µM
2,OC/C=C/c1ccccc1 [3-Phenyl-2-propen-1-ol],> 100 µM
3,C/C=C/C(=O)CC [4-Hexen-3-one],> 20 µM
4,FC(Cl)(Cl)Cl [Trichlorofluoromethane],> 90 µM
5,N#Cc1cc(Br)c(O)c(Br)c1 [Bromoxynil],> 90 µM
6,"CC(=O)c1cc(C)oc1C [3-Acetyl-2,5-dimethylfuran]",> 90 µM
7,NC(N)=O [Urea],> 100 µM
8,"C[C@H](O)CCO [1,3-Butanediol]",> 90 µM
9,CC(C)Cn1cnc2c1c(=O)n(C)c(=O)n2C [Isbufylline],> 50 µM
10,CCCCN1C[C@H](O)[C@@H](O)[C@H](O)[C@H]1CO [Miglustat],> 50 µM
11,CC[N+](C)(CC)CCOC(=O)C(O)(c1ccccc1)C1CCCCC1 (stereo not shown) [Oxyphenonium bromide],> 50 µM
12,Nc1c(CC(=O)O)cccc1C(=O)c1ccc(Br)cc1 [Bromfenac sodium sesquihydrate],> 50 µM
13,C#C[C@]1(O)CC[C@H]2[C@@H]3CCC4=CC(=O)CC[C@@H]4[C@H]3CC[C@@]21C [Norethindrone],59.2 µM
14,CCCCOc1cc(C(=O)NCCN(CC)CC)c2ccccc2n1 [Dibucaine],9.45 µM
15,CC1(C)[C@@H](OC(=O)CCC(=O)O)CC[C@]2(C)[C@H]3C(=O)C=C4[C@@H]5C[C@@](C)(C(=O)O)CC[C@]5(C)CC[C@@]4(C)[C@]3(C)CC[C@@H]12 [Carbenoxolone sodium],> 20 µM
16,CCOc1ccc2nc(S(N)(=O)=O)sc2c1 [Ethoxzolamide],> 50 µM
17,O=C(c1ccccc1)c1ccccc1 [Benzophenone],> 50 µM
18,CN(C)CCN(Cc1ccc(Cl)cc1)c1ccccn1 [Chloropyramine hydrochloride],10.2 µM
19,"C=C(C)C(=O)OCCC(C)OC(=O)C(=C)C (stereo not shown) [1,3-Butyleneglycol dimethacrylate]",> 90 µM
20,Clc1cccc(C(c2ccc3[nH]cnc3c2)n2ccnc2)c1 (stereo not shown) [Liarozole hydrochloride],> 50 µM
21,CC(C)(C)c1ccc(CCC=O)cc1 [3-(4-tert-Butylphenyl)propanal],> 90 µM

row,Compound,CC50 at 24 h
1,"C1CCC2=NCCCN2CC1 [1,8-Diazabicyclo[5.4.0]undec-7-ene]",> 90 µM
2,"O=C(O)CC(C(=O)O)C(CC(=O)O)C(=O)O (stereo not shown) [1,2,3,4-Butanetetracarboxylic acid]",> 90 µM
3,CC(O)(c1ccc(Cl)cc1)c1ccc(Cl)cc1 [Chlorfenethol],76.2 µM
4,CCCCCCOCCOCCO [2-[2-(Hexyloxy)ethoxy]ethanol],> 90 µM
5,Cc1ccccc1CNc1ncnc2c1ncn2[C@@H]1O[C@H](CO)[C@@H](O)[C@H]1O [Metrifudil],> 50 µM
6,"CC(C)=CCl [2,2-Dimethylvinyl chloride]",> 90 µM
7,CC1(C)S[C@@H]2[C@H](N)C(=O)N2[C@H]1C(=O)O [6-Aminopenicillanic acid],> 20 µM
8,CN(C)CCN1C(=O)c2ccccc2N(C)c2ccccc21 [Dibenzepin hydrochloride],> 50 µM
9,CCCCCCCCCCC [Undecane],> 90 µM
10,CC(C)C(=O)c1c(C(C)C)nn2ccccc12 [Ibudilast],> 50 µM
11,O=C(O)c1cccc(C[C@@H]2COc3ccc(OCc4nc5cc(F)ccc5s4)cc3[C@@H]2O)c1 [CP-085958],> 90 µM
12,O=C(/C=C/c1ccccc1)OCCCc1ccccc1 [3-Phenylpropyl cinnamate],> 90 µM
13,C[C@H]1[C@H](O)O[C@@H]2O[C@@]3(C)CC[C@H]4[C@H](C)CC[C@@H]1[C@@]24OO3 [Artenimol],1.39 µM
14,CC(C)=CCC/C(C)=C/CO [Geraniol],> 90 µM
15,CN1CCC(=C2c3ccccc3CCc3cccnc32)CC1 [Azatadine],47.7 µM
16,C[C@]12CC[C@@H]3c4ccc(OC(=O)c5ccccc5)cc4CC[C@H]3[C@@H]1CC[C@@H]2O [Estradiol benzoate],> 50 µM
17,COc1cccc(Br)c1 [1-Bromo-3-methoxybenzene],> 90 µM
18,CO[C@@H]1[C@@H](O[C@@H]2O[C@H](C)[C@@H](O[C@H]3C[C@@](C)(O)[C@@H](OC(=O)CC(C)C)[C@H](C)O3)[C@H](N(C)C)[C@H]2O)[C@@H](CC=O)C[C@@H](C)C(=O)/C=C/[C@@H]2O[C@H]2C[C@@H](C)OC(=O)C[C@H]1OC(C)=O [Carbomycin A],34.1 µM

# Same assay, conditions: rat, gh3-tre-luc cells, AC50 (uM) modified / 1000, Tox21_110001=Tox21_201354; viability, 1 nM T3 present, 24 h
row,Compound,CC50 at 24 h
1,C=C(C)C#N [Methacrylonitrile],> 100 µM

# Same assay, conditions: rat, gh3-tre-luc cells, AC50 (uM) modified / 1000, Tox21_110001=Tox21_301843; viability, 1 nM T3 present, 24 h
row,Compound,CC50 at 24 h
1,COC(=O)c1ccccc1S(=O)(=O)NC(=O)Nc1nc(C)cc(C)n1 [Sulfometuron-methyl],> 90 µM

# Same assay, conditions: rat, gh3-tre-luc cells, AC50 (uM) modified / 1000, Tox21_110001=Tox21_302121; viability, 1 nM T3 present, 24 h
row,Compound,CC50 at 24 h
1,"ClCCCCCCCl [1,6-Dichlorohexane]",> 90 µM

# Same assay, conditions: rat, gh3-tre-luc cells, AC50 (uM) modified / 1000, Tox21_110001=Tox21_303172; viability, 1 nM T3 present, 24 h
row,Compound,CC50 at 24 h
1,C=C(C)C#N [Methacrylonitrile],> 90 µM
